From ChEMBL document CHEMBL1150736, “Potential inhibitors of platelet aggregation from plant sources, III” (1987) come the findings set out here.

Type in all cases: functional
Experiment [1] has as its system Platelet. The experiment is described as follows: Antiplatelet activity against rat platelet rich plasma assessed as inhibition of arachidonic acid-induced platelet aggregation at 0.5 mg/ml pretreated 2 mins before arachidonic acid challenge.
Experiment [2] relates to Platelet. The experiment is described as follows: Antiplatelet activity against rat platelet rich plasma assessed as inhibition of collagen-induced platelet aggregation at 0.25 mg/ml pretreated 2 mins before collagen challenge.
Experiment [3] relates to Platelet. In words: Antiplatelet activity against rat platelet rich plasma assessed as inhibition of arachidonic acid-induced platelet aggregation at 0.25 mg/ml pretreated 2 mins before arachidonic acid challenge.
In experiment [4] the test system is Platelet. In words: Antiplatelet activity against rat platelet rich plasma assessed as inhibition of collagen-induced platelet aggregation at 0.1 mg/ml pretreated 2 mins before collagen challenge.
The subject of experiment [5] is Platelet. The experiment is described as follows: Antiplatelet activity against rat platelet rich plasma assessed as inhibition of ADP-induced platelet aggregation at 1 mg/ml pretreated 2 mins before ADP challenge.
Experiment [6] can be described thus: Antiplatelet activity against rat platelet rich plasma assessed as inhibition of ADP-induced platelet aggregation pretreated 2 mins before ADP challenge.
Experiment [7] in a line: Antiplatelet activity against rat platelet rich plasma assessed as inhibition of arachidonic acid-induced platelet aggregation pretreated 2 mins before arachidonic acid challenge.
The nature of experiment [8]: Antiplatelet activity against rat platelet rich plasma assessed as inhibition of collagen-induced platelet aggregation pretreated 2 mins before collagen challenge.
For experiment [9], the system named is Platelet. In words: Antiplatelet activity against rat platelet rich plasma assessed as inhibition of ADP-induced platelet aggregation at 0.5 mg/ml pretreated 2 mins before ADP challenge.
Experiment [10] deals with Platelet. In words: Antiplatelet activity against rat platelet rich plasma assessed as inhibition of arachidonic acid-induced platelet aggregation at 0.1 mg/ml pretreated 2 mins before arachidonic acid challenge.
Experiment [11] concerns Platelet. The experiment is described as follows: Antiplatelet activity against rat platelet rich plasma assessed as inhibition of collagen-induced platelet aggregation at 0.05 mg/ml pretreated 2 mins before collagen challenge.

SMILES strings stand for the structures. Calls of active or inactive are those of the source. The calls are words filed in the database; no cut-off is given here.

With `COC(=O)c1cc(OC)cc(OC)c1`, the result in the experiment on Platelet [1] and with Platelet [2] was Active.
Turning to `COC(=O)c1ccc(O)c(OC)c1`, the result with Platelet [1], with Platelet [3], in the experiment on Platelet [2], with Platelet [4] and in the experiment with Platelet [5] was Active.
Take `COc1cccc(C(=O)O)c1O`: the result in the experiment on Platelet [1] and in the experiment with Platelet [5] was Active.
Turning to `O=C(O)c1c(O)cccc1O`, the result in the experiment on Platelet [1] and in the experiment with Platelet [2] was Active.
For the compound `COc1ccc(C(=O)O)c(OC)c1`, the outcome in the experiment with Platelet [1], in the experiment with Platelet [2] and with Platelet [5] was Active.
As to `COC(=O)c1ccc(O)c(O)c1`, the result with Platelet [1], in the experiment with Platelet [3] and in the experiment with Platelet [5] was Active.
For the compound `CCOC(=O)c1ccc(O)c(O)c1`, the Activity in experiment [6] amounted to 2.7 mM; in [7], 5.5 ×10⁻⁴ M; in experiment [8] it was 1.4 mM. Also, the outcome in the experiment with Platelet [9], with Platelet [1], in the experiment with Platelet [3], in the experiment with Platelet [2], in the experiment with Platelet [10] and with Platelet [5] was Active.
In the case of `CCOc1ccc(C(=O)O)cc1OCC`, the result with Platelet [1] and in the experiment with Platelet [5] was Active. Also, the outcome with Platelet [3], in the experiment with Platelet [2] and with Platelet [4] was inactive.
Turning to `COc1ccc(C(=O)O)c(O)c1`, the outcome in the experiment with Platelet [1] and in the experiment on Platelet [2] was Active.
Turning to `COc1ccc(C(=O)O)cc1O`, the result in the experiment with Platelet [1] and in the experiment on Platelet [5] was Active. The result with Platelet [3] was inactive.
With `COc1cc(C(=O)O)ccc1O`, the result with Platelet [1], with Platelet [2] and in the experiment on Platelet [5] was Active. Besides, the outcome in the experiment with Platelet [3] was inactive.
In the case of `CCOC(=O)c1cccc(O)c1O`, the outcome in the experiment on Platelet [1], in the experiment on Platelet [3] and in the experiment with Platelet [5] was Active.
As for `O=C(O)c1cc(O)cc(O)c1`, the outcome in the experiment with Platelet [1], in the experiment with Platelet [2] and with Platelet [5] was Active.
`CCOC(=O)c1cc(O)cc(O)c1`: the outcome in the experiment with Platelet [1] and with Platelet [5] was Active.
On to `COC(=O)c1ccc(O)cc1O`, for which the outcome in the experiment with Platelet [1], in the experiment on Platelet [3] and in the experiment with Platelet [5] was Active.
Regarding `CC(=O)Oc1ccccc1C(=O)O` [ASPIRIN], the results for the Activity in [6], in experiment [7] and in experiment [8] were 5.6 mM, 2.8 ×10⁻⁴ M and 1.4 mM, respectively. Further, the result in the experiment with Platelet [1], in the experiment with Platelet [3], in the experiment on Platelet [2], in the experiment on Platelet [10] and with Platelet [5] was Active. For the same compound, in the experiment with Platelet [11], the result was inactive.
On to `COc1cccc(C(=O)O)c1OC`, for which the result in the experiment with Platelet [1] and with Platelet [3] was inactive. For the same compound, the outcome in the experiment with Platelet [2] and with Platelet [5] was Active.
Turning to `CCOC(=O)c1ccc(O)cc1O`, the outcome in the experiment with Platelet [1], in the experiment with Platelet [3] and in the experiment with Platelet [5] was Active.
As for `COc1cccc(OC)c1C(=O)O`, the outcome in the experiment on Platelet [3] was inactive. Also, the outcome with Platelet [2] was Active.
Take `COC(=O)c1cccc(O)c1O`: the result with Platelet [1], in the experiment with Platelet [3] and in the experiment with Platelet [5] was Active.
Take `O=C(O)c1cc(O)ccc1O`: the result with Platelet [1], with Platelet [2] and with Platelet [5] was Active.
In the case of `COC(=O)c1ccc(OC)c(OC)c1`, the outcome in the experiment with Platelet [1], in the experiment with Platelet [3], in the experiment on Platelet [2] and with Platelet [4] was Active.
Take `COc1cc(OC)cc(C(=O)O)c1`: the outcome in the experiment on Platelet [9], in the experiment with Platelet [2] and in the experiment on Platelet [4] was inactive.
With `COc1cc(CC(=O)O)ccc1O`, the result in the experiment on Platelet [3] and in the experiment on Platelet [5] was Active.
As for `COc1ccc(C(=O)O)cc1OC`, the outcome with Platelet [9] and in the experiment with Platelet [3] was inactive.
`COc1ccc(O)c(C(=O)O)c1`: the outcome with Platelet [3] was inactive. Further, the result in the experiment on Platelet [2] and with Platelet [5] was Active.
On to `O=C(O)c1cccc(O)c1O`, for which the outcome with Platelet [1], in the experiment on Platelet [3], in the experiment with Platelet [2] and in the experiment on Platelet [5] was Active.
Take `O=C(O)c1ccc(O)cc1O`: the result with Platelet [1], with Platelet [3], with Platelet [2], in the experiment with Platelet [10], in the experiment on Platelet [4] and in the experiment on Platelet [5] was Active.
As to `COC(=O)c1ccc(OC)cc1O`, the result in the experiment on Platelet [9] and with Platelet [3] was inactive. Besides, the outcome in the experiment on Platelet [2] was Active.
For the compound `COC(=O)c1cc(O)cc(O)c1`, the outcome in the experiment on Platelet [1], in the experiment on Platelet [3], in the experiment with Platelet [2], in the experiment on Platelet [10] and in the experiment on Platelet [5] was Active.
As for `O=C(O)c1ccc(O)c(O)c1` [PROTOCATECHUIC ACID], the figures for the Activity in experiment [6], in [7] and in [8] were 6.5 mM, 3.2 mM and 1.6 mM, respectively. The result with Platelet [1], in the experiment with Platelet [2] and with Platelet [5] was Active.
